Results published in patent publication US5936097A, “4,9-ethano-benzo(F)isoindole derivatives as farnesyl transferase inhibitors” (Rhone-Poulenc Rorer, S.A., priority 1995, dated 1999).
Where a name gives a salt, the structure may show the parent alone. Read-outs that look alike come from different tables or passages of the source.

Target: T1, human farnesyl transferase (Homo sapiens, UniProt P49354+P49356)
T1 construct: human farnesyl transferase purified from THP1 cell cultures; endogenous in cells; host or cells: THP1 cell cultures (enzyme purified from the cells)
Assay: inhibition of farnesyl transferase ((3H) farnesyl transfer from (3H) FPP to p21 H-ras)
Format: biochemical
Method: Farnesyl transferase activity is determined by the amount of (^3 H) farnesyl transferred from (^3 H) farnesylpyrophosphate [(^3 H) FPP] to the p21 H-ras protein. The standard reaction mixture is composed, for a final volume of […], of 50 mM Tris-HCl, 5 mM MgCl2, 5 mM dithiotreitol, 0.2% octyl b-D-glucopyranoside, 200 picomol p21 H-ras, 4.5 picomol (^3 H) FPP (activity 61000 dpm/picomol).
Reaction is initiated by adding approximately 5 ng of human farnesyl transferase purified from THP1 cell cultures. After incubation for 20 minutes at 37° C. in a microtitration plate containing 96 1-cm^3 wells per plate (Titer Plate®, Beckman), the reaction is stopped by adding 0.4 cm^3 of 0.1% SDS in methanol at 0° C. The mixture is then treated with 0.4 cm^3 of 30% trichloroacetic® acid (TCA) in methanol. The plates are left in ice for 1 hour. The precipitated contents are then retained on Filtermat®, Pharmacia), glass® fibre membranes with the filtration unit (Combi Cell Harvester®, Skatron), and rinsed with 6% trichloroacetic acid in distilled water. The membranes are dried in a microwave oven, then impregnated with scintillation medium by melting of Meltilex® (Pharmacia) under hot air, and lastly counted in cpm in a b-Plate counter® (LKB). Each test is repeated 3 times.
The unit of activity is defined as 1 picomole of (^3 H) FPP transferred to p21 H-ras in 20 minutes.
The percentage inhibition values are obtained by comparison of the tests with and without inhibitor after deduction of blanks, the IC50 values being measured on the basis of the inhibitions obtained with 9 different concentrations using Enzfitter® or Grafit® software.

[1] = human farnesyl transferase purified from THP1 cell cultures, p21 H-ras substrate, 20 minutes at 37° C., 9 concentrations, read-out: in vitro inhibitory activity IC50

| IC50 [1] | SMILES | IC50 |
| --- | --- | --- |
| 0.5 µM | C=C(C(=O)N1C[C@H]2[C@@]3(c4ccccc4)CC[C@H](c4ccccc43)[C@@]2(C(=O)NCc2ccccc2)C1)c1ccccc1OC [Example 71] |  |
| 0.21 µM | C=C(C(=O)N1C[C@H]2[C@@]3(c4ccccc4)CC[C@H](c4ccccc43)[C@@]2(C(=O)NCc2ccccc2OC)C1)c1ccccc1OC [Example 82] |  |
| 8.8 µM | COc1ccccc1CC(=O)N1C[C@H]2[C@@]3(c4ccccc4)CC[C@H](c4ccccc43)[C@@]2(NC(=O)C(N)CCSC)C1 (stereo partly drawn) [Example 13, (3aRS, 4SR, 9SR, 9aRS)-3a-methionylamino-4,9-ethano-2-(2-methoxyphenyl)acetyl-9-phenyl-2,3,3a,4,9,9a-hexahydro-1H-benzo[f]isoindole] |  |
| 0.78 µM | C=C(C(=O)N1C[C@H]2[C@@]3(c4ccccc4)CC[C@H](c4ccccc43)[C@@]2(C(=O)NCc2cccc(C(F)(F)F)c2)C1)c1ccccc1OC [Example 89, (3aS,4R,9R,9aS)-N-[3-trifluorobenzyl]-4,9-ethano-2-[(2-methoxyphenyl)prop-2-en-1-oyl]-9-phenyl-2,3,3a,4,9,9a-hexahydro-1H-benzo[f]isoindole-3a-carboxamide] |  |
|  | COc1ccccc1C(=O)C(=O)N1C[C@@H]2[C@]3(c4ccccc4)CC[C@@H](c4ccccc43)[C@]2(C(=O)O)C1 (racemic) [Example 42, (3aRS,4SR,9SR,9aRS)-4,9-ethano-2-[2-(2-methoxyphenyl)-2-oxoacetyl]-9-phenyl-2,3,3a,4,9,9a-hexahydro-1H-benzo[f]isoindole-3a-carboxylic acid] | 8.45 µM |
| 1.1 µM | COc1ccccc1CC(=O)N1C[C@@H]2[C@]3(c4ccccc4)CC[C@@H](c4ccccc43)[C@]2(C(=O)N(C)CC(=O)O)C1 (relative stereo) [Example 49, N-[(3aRS,4SR,9SR,9aRS)-4,9-ethano-2-(2-methoxyphenyl)acetyl-9-phenyl-2,3,3a,4,9,9a-hexahydro-1H-benzo[f]isoindol-3a-yl]carbonyl-N-methylglycine] |  |
| 4.7 µM | CNC(=O)[C@@]12CN(C(=O)Cc3ccccc3OC)C[C@@H]1[C@]1(c3ccccc3)CC[C@H]2c2ccccc21 (relative stereo) [Example 54, (3aRS,4SR,9SR,9aRS)-N-methyl-4,9-ethano-2-(2-methoxyphenyl)acetyl-9-phenyl-2,3,3a,4,9,9a-hexahydro-1H-benzo[f]isoindole-3a-carboxamide] |  |
| 8.7 µM | COc1ccccc1CC(=O)N1C[C@H]2[C@@]3(c4ccccc4)CC[C@H](c4ccccc43)[C@@]2(NC(=O)C(CO)NC(=O)OC(C)(C)C)C1 (stereo partly drawn) [Example 14] |  |
|  | O=C(Cc1ccccc1O)N1C[C@@H]2[C@]3(c4ccccc4)CC[C@@H](c4ccccc43)[C@]2(C(=O)O)C1 (relative stereo) [Example 60, (3aRS,4SR,9SR,9aRS)-4,9-Ethano-2-(2-hydroxyphenyl)acetyl-9-phenyl-2,3,3a,4,9,9a-hexahydro-1H-benzo[f]isoindole-3a-carboxylic acid] | 1.8 µM |
| 2.3 µM | COc1ccccc1CC(=O)N1C[C@H]2[C@@]3(c4ccccc4)CC[C@H](c4ccccc43)[C@@]2(CSCCC(=O)O)C1 (relative stereo) [Example 26, 3-[(3aRS, 4SR, 9SR, 9aRS)-4,9-ethano-2-(2-methoxyphenyl)acetyl-9-phenyl-2,3,3a,4,9,9a-hexahydro-1H-benzo[f]isoindol-3a-yl]methylthiopropanoic acid] |  |
|  | O=C(Cc1ccccc1F)N1C[C@@H]2[C@]3(c4ccccc4)CC[C@@H](c4ccccc43)[C@]2(C(=O)O)C1 (relative stereo) [Example 63, (3aRS,4SR,9SR,9aRS)-4,9-Ethano-2-(2-fluorophenyl)acetyl-9-phenyl-2,3,3a,4,9,9a-hexahydro-1H-benzo[f]isoindole-3a-carboxylic acid] | 7 µM |
| 4.8 µM | COc1ccccc1CC(=O)N1C[C@H]2[C@@]3(c4ccccc4)CC[C@H](c4ccccc43)[C@@]2(CC(=O)NCC(=O)O)C1 (relative stereo) [Example 20, N-[(3aRS, 4SR, 9SR, 9aRS)-4,9-ethano-2-(2-methoxyphenyl)acetyl-9-phenyl-2,3,3a,4,9,9a-hexahydro-1H-benzo[f]isoindol-3a-yl]acetylglycine] |  |
| 9.4 µM | COc1ccccc1CC(=O)N1C[C@H]2[C@@]3(c4ccccc4)CC[C@H](c4ccccc43)[C@@]2(C(=O)NCCN(C)C)C1 (relative stereo) [Example 4, (3aRS, 4SR, 9SR, 9aRS)-N-(2-dimethylaminoethyl)-4,9-ethano-2-(2-methoxyphenyl)acetyl-9-phenyl-2,3,3a,4,9,9a-hexahydro-1H-benzo[f]isoindole-3a-carboxamide] |  |
| 0.45 µM | C=C(C(=O)N1C[C@H]2[C@@]3(c4ccccc4)CC[C@H](c4ccccc43)[C@@]2(C(=O)NCc2ccccn2)C1)c1ccccc1OC [Example 93, (3aS,4R,9R,9aS)-N-[(2-pyridyl)-methyl]-4,9-ethano-2-[(2-methoxyphenyl)prop-2-en-1-oyl]-9-phenyl-2,3,3a,4,9,9a-hexahydro-1H-benzo[f]isoindole-3a-carboxamide] |  |
| 0.16 µM | C=C(C(=O)N1C[C@H]2[C@@]3(c4ccccc4)CC[C@H](c4ccccc43)[C@@]2(C(=O)NCc2cccnc2)C1)c1ccccc1OC [Example 91, (3aS,4R,9R,9aS)-N-[(3-pyridyl)methyl]-4,9-ethano-2-[(2-methoxyphenyl)prop-2-en-1-oyl]-9-phenyl-2,3,3a,4,9,9a-hexahydro-1H-benzo[f]isoindole-3a-carboxamide] |  |
| 0.75 µM | O=C(Cc1ccccc1OCc1ccccc1)N1C[C@@H]2[C@]3(c4ccccc4)CC[C@@H](c4ccccc43)[C@]2(C(=O)O)C1 (relative stereo) [Example 64, (3aRS,4SR,9SR,9aRS)-4,9-Ethano-2-(2-benzyloxyphenyl)acetyl-9-phenyl-2,3,3a,4,9,9a-hexahydro-1H-benzo[f]isoindole-3a-carboxylic acid] |  |
| 4.8 µM | C=C(C(=O)N1C[C@H]2[C@@]3(c4ccccc4)CC[C@H](c4ccccc43)[C@@]2(C(=O)NCc2ccc(C(F)(F)F)cc2)C1)c1ccccc1OC [Example 92, (3aS,4R,9R,9aS)-N-[4-trifluorobenzyl]-[4,9-ethano-2-(2-methoxyphenyl)prop-2-en-1-oyl]-9-phenyl-2,3,3a,4,9,9a-hexahydro-1H-benzo[f]isoindole-3a-carboxamide] |  |
|  | CCOc1ccccc1CC(=O)N1C[C@H]2[C@@]3(c4ccccc4)CC[C@H](c4ccccc43)[C@@]2(C(=O)O)C1 [Example 75] | 0.37 µM |
| 1.33 µM | O=C(Cc1ccccc1OCCCN1CCCC1)N1C[C@H]2[C@@]3(c4ccccc4)CC[C@H](c4ccccc43)[C@@]2(C(=O)O)C1 (relative stereo) [Example 32, hydrochloride of (3aRS, 4SR, 9SR, 9aRS)-4,9-ethano-2-[2-(3-pyrrolidinylpropyl)oxyphenyl]-acetyl-9-phenyl-2,3,3a,4,9,9a-hexahydro-1H-benzo[f]isoindole-3a-carboxylic acid] |  |
| 5.6 µM | COc1ccccc1CC(=O)N1C[C@H]2[C@@]3(c4ccccc4)CC[C@H](c4ccccc43)[C@@]2(CC(=O)O)C1 (relative stereo) [Example 19, (3aRS, 4SR, 9SR, 9aRS)-4,9-ethano-2-(2-methoxyphenyl)acetyl-9-phenyl-2,3,3a,4,9,9a-hexahydro-1H-benzo[f]isoindol-3a-acetic acid] |  |
|  | C=C(C(=O)N1C[C@@H]2[C@]3(c4ccccc4)CC[C@@H](c4ccccc43)[C@]2(C(=O)O)C1)c1ccccc1OC (relative stereo) [Example 38, (3aRS,4SR,9SR,9aRS)-4,9-ethano-2-[2-(2-methoxyphenyl)prop-2-en-1-oyl]-9-phenyl-2,3,3a,4,9,9a-hexahydro-1H-benzo[f]isoindole-3a-carboxylic acid] | 0.1 µM |
| 0.65 µM | C/C=C(/C(=O)N1C[C@@H]2[C@]3(c4ccccc4)CC[C@@H](c4ccccc43)[C@]2(C(=O)O)C1)c1ccccc1OC (racemic) [Example 78, (3aRS,4SR,9SR,9aRS)-4,9-ethano-2-[2(E)-(2-methoxyphenyl)-2-butenoyl]-9-phenyl-2,3,3a,4,9,9a-hexahydro-1H-benzo[f]isoindole-3a-carboxylic acid] |  |
| 0.8 µM | CCCOc1ccccc1CC(=O)N1C[C@H]2[C@@]3(c4ccccc4)CC[C@H](c4ccccc43)[C@@]2(C(=O)O)C1 (relative stereo) [Example 80, (3aRS,4SR,9SR,9aRS)-4,9-ethano-9-phenyl-2-(2-n-propoxyphenyl)acetyl-2,3,3a,4,9,9a-hexahydro-1H-benzo[f]isoindole-3a-carboxylic acid] |  |
| 0.59 µM | COc1ccccc1CC(=O)N1CC2C3(c4ccccc4)CCC(c4ccccc43)C2(C(=O)N[C@@H](CS)C(=O)O)C1 (stereo partly drawn) [Example 53, N-[(3aRS,4SR,9SR,9aRS)-4,9-ethano-2-(2-methoxyphenyl)acetyl-9-phenyl-2,3,3a,4,9,9a-hexahydro-1H-benzo[f]isoindol-3a-yl]carbonyl-L-cysteine] |  |
